Measured values published in PMC11771213, “Molecular Docking Studies and In Vitro Activity of Pancreatic Lipase Inhibitors from Yak Milk Cheese” (International Journal of Molecular Sciences, 2025).
No end group written: not given here.

Key:
[1] = target: T1, porcine pancreatic lipase (PL) (Sus scrofa, UniProt P00591); assay: PL inhibitory activity after simulated gastrointestinal digestion (pepsin, then trypsin); format: biochemical; details: pepsin pH 2, then trypsin pH 7.5, enzyme–substrate 1:50 w/w, 37 °C
T1 construct: purchased Jiangsu Jingmei Bio technology (Yancheng, China)
T1 sequence (P00591 1-450): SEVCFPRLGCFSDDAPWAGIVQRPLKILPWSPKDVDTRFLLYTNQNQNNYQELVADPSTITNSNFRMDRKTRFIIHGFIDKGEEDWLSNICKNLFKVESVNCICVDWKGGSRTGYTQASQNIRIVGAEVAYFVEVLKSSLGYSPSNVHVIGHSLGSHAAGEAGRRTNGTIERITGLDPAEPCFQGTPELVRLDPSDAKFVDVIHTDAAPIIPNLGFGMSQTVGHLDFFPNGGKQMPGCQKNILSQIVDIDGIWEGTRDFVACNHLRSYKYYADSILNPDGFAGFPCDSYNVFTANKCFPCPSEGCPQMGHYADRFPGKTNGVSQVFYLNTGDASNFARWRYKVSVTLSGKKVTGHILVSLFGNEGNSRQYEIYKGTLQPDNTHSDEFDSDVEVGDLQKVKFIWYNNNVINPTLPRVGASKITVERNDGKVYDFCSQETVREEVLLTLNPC
Experimental: This experiment, based on the method of Glisan et al. and with slight modifications to the experimental method, determined the effects of peptides RK7 and KQ7 on porcine pancreatic lipase (PL). Firstly, dissolve p-nitrophenylbutyrate (5 mM) in a sodium acetate solution (5 mM, containing 1% Triton X-100). Dissolve porcine pancreatic lipase (PL) (1 mg/mL) in 100 mM Tris HCl buffer. Incubate with different concentrations of porcine pancreatic lipase (PL) and peptides in 96-well plates (37 °C) for 30 min. Then, mix with 5 mM p-nitrophenylbutyrate solution to initiate the enzyme reaction. The labeled pig pancreatic lipase antibody binds to form an antibody–antigen enzyme-labeled antibody complex. The substrate is converted to blue by enzyme catalysis and ultimately to yellow by acid action. The intensity of color is positively correlated with the presence of porcine pancreatic lipase (PL) in the sample. The enzyme-linked immunosorbent assay (ELISA) was used to measure the absorbance (OD value) at a wavelength of 450 nm, and the activity concentration of porcine pancreatic lipase (PL) in the sample was calculated using a standard curve.(1) PL inhibition rate/%=1−A−B/C−D × 100 where A is the absorbance value of the sample; B is the absorbance value of the sample blank; C is the absorbance value of the control group; and D is the absorbance value of the control blank group. […]

[2] = target: T1, porcine pancreatic lipase (PL); assay: In vitro PL inhibition assay (p-nitrophenylbutyrate substrate); format: biochemical; details: triplicate; for IC50: porcine PL 1 mg/mL in 100 mM Tris HCl, pre-incubation 37 °C 30 min, 5 mM p-nitrophenylbutyrate, absorbance 450 nm, from fitted inhibition curve; for PL inhibition rate: range over concentrations of 0.2–1.0 mg/mL, 37 °C, 30 min pre-incubation
Experimental: This experiment, based on the method of Glisan et al. and with slight modifications to the experimental method, determined the effects of peptides RK7 and KQ7 on porcine pancreatic lipase (PL). Firstly, dissolve p-nitrophenylbutyrate (5 mM) in a sodium acetate solution (5 mM, containing 1% Triton X-100). Dissolve porcine pancreatic lipase (PL) (1 mg/mL) in 100 mM Tris HCl buffer. Incubate with different concentrations of porcine pancreatic lipase (PL) and peptides in 96-well plates (37 °C) for 30 min. Then, mix with 5 mM p-nitrophenylbutyrate solution to initiate the enzyme reaction. The labeled pig pancreatic lipase antibody binds to form an antibody–antigen enzyme-labeled antibody complex. The substrate is converted to blue by enzyme catalysis and ultimately to yellow by acid action. The intensity of color is positively correlated with the presence of porcine pancreatic lipase (PL) in the sample. The enzyme-linked immunosorbent assay (ELISA) was used to measure the absorbance (OD value) at a wavelength of 450 nm, and the activity concentration of porcine pancreatic lipase (PL) in the sample was calculated using a standard curve.(1) PL inhibition rate/%=1−A−B/C−D × 100 where A is the absorbance value of the sample; B is the absorbance value of the sample blank; C is the absorbance value of the control group; and D is the absorbance value of the control blank group.
All measured data in the experiment were determined independently and measured in triplicate. All data were processed using SPSS Statistics 26.0. Data plots were generated using Origin 8.5 and GraphPad Prism 8.0.2.

With “KVLPVPQ [KQ7, Lys-Val-Leu-Pro-Val-Pro-Gln]” the “PL inhibition rate at 120 min of simulated gastrointestinal digestion” value ([1]; 120 min time point) was 61.31% and the IC50 [2] was 760 µM.
In the case of CC(C)c1c(C(=O)Nc2ccccc2)c(-c2ccccc2)c(-c2ccc(F)cc2)n1CC[C@@H](O)C[C@@H](O)CC(=O)O [atorvastatin, reference compound], the IC50 [2] is reported as 886 µM and the PL inhibition rate [2] is reported as 29.27–67.09%.
With “RPKHPIK [RK7, Arg-Pro-Lys-His-Pro-Ile-Lys]” the “PL inhibition rate after simulated gastrointestinal digestion (range over digestion)” value ([1]; 120-minute digestion, sampled every 30 min) was 44.34–62.35%, the IC50 [2] was 788 µM and the PL inhibition rate [2] was 19.74–62.32%.
